Experimental findings from patent publication US8853394B2, “Pharmacokinetically improved compounds” (Surface Logix, Inc., priority 2006, dated 2014) are described below.

A value given as a limit tells only on which side of the number the result lay.

In one series the target is PDE5 (Homo sapiens, UniProt O76074). The series is described as follows: PDE-5 human inhibition. The series is classed as biochemical.
Series [1] can be described thus: T1/2 in rat liver microsomes. Format: in vitro ADME. For orientation: Microsomes from liver hold many membrane-bound enzymes, among them those of drug oxidation.
The test system of another series is PDE-3. The series is described as follows: PDE-3 inhibition. Format: biochemical.
The nature of the next series: PAMPA permeability. Format: in vitro ADME. The note with it: Hex, read-out: PAMPA Hex.
Series [2] can be described thus: Chronic Cytoxicity (mouse 3T3). Format: cell-based. Conditions: 3T3 cells.
In another series the test system is PDE-1. The series is described as follows: PDE-1 inhibition. Format: biochemical.
The target of the next series is T1, PDE-6 bovine (Bos taurus, UniProt P11541+P23439).
T1 sequence (P11541 2-856 limits assumed): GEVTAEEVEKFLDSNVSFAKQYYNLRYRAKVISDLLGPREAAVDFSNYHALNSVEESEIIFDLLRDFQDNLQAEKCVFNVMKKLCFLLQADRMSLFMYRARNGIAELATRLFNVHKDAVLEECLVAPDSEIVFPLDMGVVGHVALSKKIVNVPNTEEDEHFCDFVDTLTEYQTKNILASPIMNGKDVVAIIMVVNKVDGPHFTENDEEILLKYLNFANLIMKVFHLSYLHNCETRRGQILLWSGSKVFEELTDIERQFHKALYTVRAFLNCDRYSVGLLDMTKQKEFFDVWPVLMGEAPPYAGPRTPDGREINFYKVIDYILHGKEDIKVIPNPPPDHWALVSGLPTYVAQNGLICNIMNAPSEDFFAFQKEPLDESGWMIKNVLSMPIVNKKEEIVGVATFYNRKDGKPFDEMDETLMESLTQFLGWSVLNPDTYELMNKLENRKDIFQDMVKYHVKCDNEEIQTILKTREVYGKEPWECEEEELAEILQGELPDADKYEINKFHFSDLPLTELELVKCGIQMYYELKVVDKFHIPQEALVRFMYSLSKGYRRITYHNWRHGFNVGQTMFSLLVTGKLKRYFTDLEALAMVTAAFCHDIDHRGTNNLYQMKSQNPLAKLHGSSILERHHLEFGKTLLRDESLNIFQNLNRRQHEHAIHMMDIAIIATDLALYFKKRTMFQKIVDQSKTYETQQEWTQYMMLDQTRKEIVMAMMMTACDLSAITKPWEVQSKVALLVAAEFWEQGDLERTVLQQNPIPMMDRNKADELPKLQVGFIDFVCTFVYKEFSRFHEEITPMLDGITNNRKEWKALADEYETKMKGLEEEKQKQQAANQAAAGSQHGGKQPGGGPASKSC
T1 sequence (P23439 2-850 limits assumed): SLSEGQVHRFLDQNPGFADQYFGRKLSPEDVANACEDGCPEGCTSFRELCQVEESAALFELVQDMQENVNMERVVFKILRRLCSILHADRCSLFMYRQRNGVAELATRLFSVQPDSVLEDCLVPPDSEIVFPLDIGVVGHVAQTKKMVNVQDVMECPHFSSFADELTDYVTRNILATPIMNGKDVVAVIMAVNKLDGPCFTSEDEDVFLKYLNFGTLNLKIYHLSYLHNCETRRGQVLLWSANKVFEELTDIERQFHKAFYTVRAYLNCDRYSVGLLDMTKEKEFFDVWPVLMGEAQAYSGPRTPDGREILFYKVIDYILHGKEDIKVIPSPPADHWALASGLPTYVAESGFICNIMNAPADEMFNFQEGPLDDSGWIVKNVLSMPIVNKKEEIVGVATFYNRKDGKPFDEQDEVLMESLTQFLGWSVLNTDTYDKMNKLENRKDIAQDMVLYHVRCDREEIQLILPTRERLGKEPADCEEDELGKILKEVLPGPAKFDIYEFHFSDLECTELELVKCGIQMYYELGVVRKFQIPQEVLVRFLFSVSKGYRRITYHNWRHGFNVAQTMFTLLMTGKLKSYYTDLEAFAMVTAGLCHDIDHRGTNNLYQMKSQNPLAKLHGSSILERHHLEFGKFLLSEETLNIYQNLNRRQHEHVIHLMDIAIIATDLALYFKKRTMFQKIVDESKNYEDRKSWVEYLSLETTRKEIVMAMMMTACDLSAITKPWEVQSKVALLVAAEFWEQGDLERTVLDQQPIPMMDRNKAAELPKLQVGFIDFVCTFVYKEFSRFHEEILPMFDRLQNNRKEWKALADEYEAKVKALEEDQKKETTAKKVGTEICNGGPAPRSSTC
The series is described as follows: PDE-6 bovine inhibition. The series is classed as biochemical.

The test system of another series is PDE-4 human. The series is described as follows: PDE-4 human inhibition. Format: biochemical.
Series [3] is described as follows: T1/2 in human liver microsomes. Format: in vitro ADME.
A short description of another series: Caco-2 permeability. The series is classed as in vitro ADME. The note with it: human. From the text: Several model systems are available, employing monolayers of various cell types, for evaluation of active transport of pharmaceutically active substances. For example, monolayers of Caco-2 intestinal epithelial cells can be used to evaluate active transport of substances between the intestine and the bloodstream. When plated on a surface which allows the flow of material from apical to basolateral and vice versa, such cells form a biological membrane which can be used to simulate physiological absorption and bioavailability. In another example, mouse brain capillary endothelial cell (MBEC) lines have been established to evaluate active transport in and out of the central nervous system. Another example of such cells is HT29 human colon carcinoma cells. Further, monolayers expressing particular transporter proteins can be established using transfected cells. For example, Sasaki et al (2002) J. Biol. Chem. 8:6497 used a double-transfected Madin-Darby canine kidney cell monolayer to study transport of organic anions.

The next series in a line: Non-Spec Binding. The series is classed as in vitro ADME.
A short description of a further series: Protein Binding. The series is classed as in vitro ADME. Conditions: human, human serum components. Here is the method: In general, protein binding is assessed by measuring the capacity of molecules of the invention to bind to one or more human serum components or mimics thereof. In one embodiment, suitable functional residues may be identified by screening of surfaces comprising such residues for their ability to resist adsorption of serum components, including, but not limited to serum proteins, and preferably human serum proteins. Candidate residues can be screened directly by attaching them to a solid support and testing the support for protein resistance. Alternatively, candidate residues are incorporated into, or linked to molecules of pharmaceutical interest. Such compounds may be synthesized on a solid support, or bound to a solid support after synthesis. In a non-limiting example of a direct binding assay, immobilized candidate functional residues or molecules incorporating such residues are tested for their ability to bind serum components. The serum components can be labeled with a signaling moiety for detection, or a labeled secondary reagent that binds to such serum components can be used.
A direct binding analysis can also be preformed in liquid phase. For example, test compounds can be mixed with one or more serum components in liquid phase, and the unbound molecules determined.

As a reminder, the IC50 is the concentration that inhibits the measured activity by half. As a reminder, the half-life is the time needed for the level to fall by half in the phase considered. Low values mean rapid decline, high ones slow decline. The term GI50 denotes the concentration giving 50% growth inhibition. Read a high GI50 as lower sensitivity of the cells. By Papp A→B is commonly meant the apparent permeability from the apical to the basolateral side of a cell layer. A low value points to poor permeation. What is called Papp B→A is how fast a substance crosses the layer from the basolateral side. A word on the fraction unbound: it is free concentration divided by total concentration.

In the case of `CCCc1nc(C)c2c(=O)[nH]c(-c3cc(S(=O)(=O)N(CC)CCOC)ccc3OCC)nn12` [Compound 9], the 50% inhibitory concentration (IC50) against PDE5 was 0.113 nM; in the series with PDE-3, 697 nM; in the series on PDE-1, 12.9 nM; at PDE-6 bovine it was 0.946 nM; in the series with PDE-4 human it was 1120 nM. Further, the half-life turned out to be 9.8 min in [1] and 9.83 min in series [3]. The Papp in “PAMPA permeability” stood at 133 ×10⁻⁶ cm/s. This compound showed a concentration for 50% growth inhibition (GI50) in series [2] of 87300 nM. The compound further registered an LC50 (50% lethal concentration) in series [2] greater than 100000 nM. The same compound registered a Papp A→B in the series “Caco-2 permeability” (AtoB) of 55.1 ×10⁻⁶ cm/s. In “Caco-2 permeability” (BtoA), this compound displayed a Papp B→A of 60.9 ×10⁻⁶ cm/s. Also, in the series “Non-Spec Binding”, the “Non-Spec Binding (%)” value was 35.85%. Besides, in the series “Protein Binding”, the free fraction (fraction unbound) stood at 0.01.
